Reference: US8440697B2, “Treatment of heart failure” (Heart Metabolics Limited, priority 2007, dated 2013)

Key:
symptomatic HCM patients [1] = experiment: Symptomatic status assessment (NYHA class, Minnesota Living with heart failure questionnaire) in HCM study; type: in vivo, human
From the text: (§1) The study was approved by the South Birmingham Research Ethics Committee and the investigation conforms with the principles outlined in the Declaration of Helsinki All study participants provided written informed consent. The study was a randomized, double blind, placebo-controlled parallel-group design of minimum 3 months duration. FIG. 3 represents a flow chart of the study. The pre-defined primary end point was peak oxygen consumption (peak VO2). Pre-defined secondary end points were symptomatic status, resting myocardial energetics (PCr/γ-ATP ratio) and diastolic function at rest and during exercise (nTTPF). 33 controls of similar age and gender distribution were recruited for comparison with baseline data of HCM patients. All controls had no history or symptoms of any cardiovascular disease with normal ECG and echocardiogram (LVEF≧55%).
(§2) Patients were recruited from dedicated cardiomyopathy clinics at The Heart Hospital, University College London Hospitals, London and Queen Elizabeth Hospital, Birmingham, UK between 2006 and 2008. Inclusion criteria were 18 to 80 years old symptomatic HCM patients (predominant symptom breathlessness) in sinus rhythm with reduced peak VO2 (<75% of predicted for age and gender) and no significant LVOT obstruction at rest (gradient<30 mmHg). Exclusion criteria were presence of epicardial coronary artery disease, abnormal liver function test, concomitant use of amiodarone or selective serotonin reuptake inhibitors (due to potential drug interactions with perhexiline), peripheral neuropathy and women of childbearing potential. Diabetic patients were also excluded to maintain the blindness of the study as Perhexiline may lead to a reduction in plasma glucose in such patients necessitating a reduction in anti-diabetic therapy. 46 consecutive consenting patients who met these entry criteria were recruited into the study.
All HCM patients filled in Minnesota Living with heart failure questionnaire and were also assessed for NHYA class.
(§3) Following baseline studies, patients were randomized in a double-blind fashion to receive either perhexiline (n=25) or placebo (n=21) 100 mg OD. Serum perhexiline levels were obtained at 1 and 4 weeks after initiation of the drug. Dose adjustments were advised by an unblinded physician according to serum level to achieve therapeutic level and to avoid drug toxicity. Identical dosage adjustments were also made for randomly allocated placebo-treated patients by the unblinded observer to ensure that blinding of the investigators was maintained. At the end of study, patients were re-evaluated as described earlier.
Data were analyzed using SPSS ver. 15.0 for Window and Microsoft Office Excel 2007, and expressed as Mean±Standard Deviation (SD). Comparison of continuous variables between Perhexiline and Placebo baseline data were determined by unpaired Student's t-test (2-tail) if variables were normally distributed and the Mann-Whitney U-test if the data were non-normally distributed. ANCOVA with baseline values as covariates was performed to test for the significance of differences in the perhexiline versus placebo group after treatment. For the primary end point, the sample size required to detect a change in peak Vo2 of 3 ml/kg/min versus placebo group with a power of 90% and probability of 5% is 44. 30 patients will be required to identify a 5% change in cardiac PCr/ATP ratio with a power of 90% and a p value of <0.05. 40 patients will be required to detect a change ≧25% in nTTPF with power of 0.99 with probability of 5%. Therefore, we aimed to study 50 patients including the drop-outs, 32 of them will take part in the MRS study.

symptomatic HCM patients [2] = experiment: Cardiopulmonary exercise test (peak oxygen consumption), randomized double-blind placebo-controlled study in HCM; type: in vivo, human
From the text: as §1, §2
This was performed using a Schiller CS-200 Ergo-Spiro exercise machine which was calibrated before every study. […]
(§4) Following baseline studies, patients were randomized in a double-blind fashion to receive either perhexiline (n=25) or placebo (n=21) 100 mg OD. […] At the end of study, patients were re-evaluated as described earlier.
(§5) Data were analyzed using SPSS ver. 15.0 for Window and Microsoft Office Excel 2007, and expressed as Mean±Standard Deviation (SD). Comparison of continuous variables between Perhexiline and Placebo baseline data were determined by unpaired Student's t-test (2-tail) if variables were normally distributed and the Mann-Whitney U-test if the data were non-normally distributed. […]

symptomatic HCM patients [3] = experiment: 31P cardiac magnetic resonance spectroscopy, resting myocardial energetics (PCr/γ-ATP ratio) in HCM study; type: in vivo, human
From the text: as §1
Patients were recruited from dedicated cardiomyopathy clinics at The Heart Hospital, University College London Hospitals, London and Queen Elizabeth Hospital, Birmingham, UK between 2006 and 2008. […]
In vivo myocardial energetics were measured using a MRS at 3-Tesla Phillips Achieva 3T scanner (Shivu G N, Abozguia K, Phan T T, Ahmed I, Henning A, Frenneaux M. (31)P magnetic resonance spectroscopy to measure in vivo cardiac energetics in normal myocardium and hypertrophic cardiomyopathy: Experiences at 3T. Eur J Radiol 2008). A java magnetic resonance user interface v3.0 (jMRUI) was used for analysis (see Naressi A, Couturier C, Castang I, de Beer R, Graveron-Demilly D. Java-based graphical user interface for MRUI, a software package for quantitation of in vivo/medical magnetic resonance spectroscopy signals. Comput Biol Med 2001; 31(4):269-286)). […] Data were analyzed by an investigator who was blinded to the participants' clinical status. […]
as §4
Data were analyzed using SPSS ver. […]

symptomatic HCM patients [4] = experiment: Radionuclide ventriculography, diastolic filling (nTTPF) at rest and during exercise in HCM study; type: in vivo, human
From the text: as §1
Patients were recruited from dedicated cardiomyopathy clinics at The Heart Hospital, University College London Hospitals, London and Queen Elizabeth Hospital, Birmingham, UK between 2006 and 2008. Inclusion criteria were 18 to 80 years old symptomatic HCM patients (predominant symptom breathlessness) in sinus rhythm with reduced peak VO2 (<75% of predicted for age and gender) and no significant LVOT obstruction at rest (gradient<30 mmHg). […]
Diastolic filling were assessed by equilibrium R-wave gated blood pool scintigraphy using a standard technique at rest and during graded semi erect exercise on a cycle ergometer (Atherton J J, Moore T D, Lele S S et al. Diastolic ventricular interaction in chronic heart failure. Lancet 1997; 349 (9067):1720-1724; Lele S S, Macfarlane D, Morrison S, Thomson H, Khafagi F, Frenneaux M. Determinants of exercise capacity in patients with coronary artery disease and mild to moderate systolic dysfunction. Role of heart rate and diastolic filling abnormalities. Eur Heart J 1996; 17(2):204-212). Peak left ventricular filling rate in terms of end-diastolic count per second (EDC/s) and time to peak filling normalised for R—R interval (nTTPF) in milliseconds were measured at rest and during exercise (50% of heart rate reserve). […]
as §4, §5

symptomatic HCM patients [5] = experiment: Side effects and deaths in HCM study; type: in vivo
From the text: as §1, with “(nTTPF).” for “(nTTPF). 33 controls of similar age and gender distribution were recruited for comparison with baseline data of HCM patients. All controls had no history or symptoms of any cardiovascular disease with normal ECG and echocardiogram (LVEF≧55%).”
Diabetic patients were also excluded to maintain the blindness of the study as Perhexiline may lead to a reduction in plasma glucose in such patients necessitating a reduction in anti-diabetic therapy. 46 consecutive consenting patients who met these entry criteria were recruited into the study.
as §3

[6] = perhexiline group (n=25), during the first week of treatment

`C1CCC(C(CC2CCCCN2)C2CCCCC2)CC1` (centres unmarked) [perhexiline, 2-(2,2-dicyclohexylethyl) piperidine] was tested, and the “NYHA score (of breathlessness), in words” value (symptomatic HCM patients [1]; FIG. 5E legend) was “falls (improves)”, the “Minnesota living with heart failure questionnaire score, in words” value (symptomatic HCM patients [1]; FIG. 5F legend) was “falls (=improved quality of life)” and the “Minnesota Living with heart failure questionnaire score after treatment” value (symptomatic HCM patients [1]; perhexiline group, after treatment, fall in score = improvement, p<0.001 vs placebo) was 28±0.75. For the same compound, the “Minnesota Living with heart failure questionnaire score at baseline” value (symptomatic HCM patients [1]; perhexiline group, before treatment) was 36.13±0.94, the “Patients with worsening in NYHA classification” value (symptomatic HCM patients [1]; perhexiline group, placebo 20 percent) was 8% and the “Patients with improvements in NYHA classification” value (symptomatic HCM patients [1]; perhexiline group, placebo 30 percent) was 67%. For the same compound, the “Effect on peak VO2 (exercise capacity), in words” value (symptomatic HCM patients [2]; FIG. 5A legend, p=0.003 vs placebo) was “increases”, the “Peak VO2 at baseline” value (symptomatic HCM patients [2]; perhexiline group (n=25), before treatment, mean±SD) was 22.2 ± 0.2 mL/min/kg and the “Peak VO2 after treatment” value (symptomatic HCM patients [2]; perhexiline group, 100 mg OD titrated to serum level, minimum 3 months, p=0.003 vs placebo response) was 24.29 ± 0.2 mL/min/kg. The “Increase in Peak VO2 after treatment” value (symptomatic HCM patients [2]; perhexiline group, after treatment vs baseline, placebo fell by -1.23, p=0.003) was 2.09 mL/min/kg, the “Effect on PCr/ATP ratio (energetic status of heart), in words” value (symptomatic HCM patients [3]; FIG. 5B legend, unchanged in placebo group) was “improves” and the “PCr/γATP ratio after treatment” value (symptomatic HCM patients [3]; perhexiline group, resting, after treatment, p=0.003 vs placebo) was 1.73±0.02. For the same compound, the “PCr/γATP ratio at baseline” value (symptomatic HCM patients [3]; perhexiline group, resting, before treatment, mean±SD) was 1.27±0.02, the “Effect on nTTPF response to exercise, in words” value (symptomatic HCM patients [4]; FIG. 5D legend, p=0.03 vs placebo) was “normalises the response to similar to that seen in healthy controls” and the “nTTPF at rest on therapy” value (symptomatic HCM patients [4]; perhexiline group, on therapy, at rest) was 0.19 ± 0.003 s. For the same compound, the “nTTPF during exercise on therapy” value (symptomatic HCM patients [4]; perhexiline group, on therapy, exercise at 50% of heart rate reserve) was 0.19 ± 0.004 s, the “nTTPF change rest to exercise on therapy” value (symptomatic HCM patients [4]; perhexiline group, on therapy, p=0.03 between perhexiline and placebo response) was 0.00 ± 0.003 s and the “Side effects: dizziness (number of patients)” value (symptomatic HCM patients [5]; [6]) was 2. For the same compound, the “Side effects: transient nausea (number of patients)” value (symptomatic HCM patients [5]; [6]) was 3 and the “Deaths during the study period” value (symptomatic HCM patients [5]; whole study, perhexiline and placebo groups) was “no deaths”.
